Results: patent US20250204553A1, “FEED AND METHODS FOR CONTROLLING HEARTWORM INFECTIONS IN A MAMMAL” (In the Bowl Animal Health, Inc., priority 2022, published 2025)

Legend:
[1] = system: Dirofilaria immitis; experiment: Efficacy of monepantel administered per os to dogs for treatment and control of Dirofilaria immitis; format: in vivo; conditions: all 12 dogs; daily oral 0.083 mg/kg and 0.83 mg/kg up to Day 179; inoculated with 50 L3 D. immitis on Day -28 or Day 0; counted on or after Day 180; expected result
[2] = in vivo; cited from earlier work
[3] = system: Dirofilaria immitis; experiment: Efficacy of moxidectin administered per os to dogs for treatment and control of Dirofilaria immitis; format: in vivo; conditions: all 12 dogs; daily oral 0.8 μg/kg and 1.6 μg/kg up to Day 179; inoculated with 50 L3 D. immitis on Day -28 or Day 0; counted on or after Day 180; expected result

Compound	heartworms recovered [1]	terminal half-life [2]	heartworms recovered [3]
C[C@](C#N)(COc1cc(C#N)ccc1C(F)(F)F)NC(=O)c1ccc(SC(F)(F)F)cc1 [monepantel, N-[(2S)-2-cyano-1-[5-cyano-2-(trifluoromethyl)phenoxy]propan-2-yl]-4-(trifluoromethylsulfanyl)benzamide]	0	–	–
CO/N=C1\C[C@]2(C[C@@H]3C[C@@H](C/C=C(\C)C[C@@H](C)/C=C/C=C4\CO[C@@H]5[C@H](O)C(C)=C[C@@H](C(=O)O3)[C@]45O)O2)O[C@H](/C(C)=C/C(C)C)[C@H]1C [moxidectin]	–	approximately 13.9 days	0
ivermectin	–	43.2 h	–
